The test system of the assay is MB49-OVA bladder tumors. Nature of the assay: Gemcitabine pretreatment and ACT with OT-I T-cells in orthotopic MB49-OVA bladder cancer model, tumor growth by ultrasound. Type of assay: in vivo, C57BL/6 mice. Conditions: intravesical 500 ug gemcitabine for 30 minutes, then 5×10^6 OT-I T-cells at day 4 (GEM+OT-I). How it is done:
For murine studies, orthotopic MB49-OVA bladder tumors were collected, stained for MDSCs, and analyzed by flow cytometry. Urine samples from bladder cancer patients were also collected and stained for MDSCs. From mice, purified MDSCs and OT-I T-cells were cocultured and from bladder cancer patients, purified urine MDSCs and CD3-stimulated peripheral blood T-cells were cocultured to assess suppression of T-cell proliferation or IFN-gamma secretion. Mice bearing MB49-OVA tumors were treated with intravesical instillation of gemcitabine and/or OT-I T-cells and tumor growth was monitored via ultrasound. C57BL/6 female mice were initially anesthetized and catheterized (Terumo), then pre-treated orthotopically with Poly-L-Lysine in PBS (50 uL at 1μg/mL) for 10 minutes. Then bladders were washed with 50 uL PBS and mice received intravesical instillation of 1×10^5 MB49-OVA murine bladder cancer cells for 30 minutes. Presence of bladder tumors were confirmed via the Vevo 2100 ultrasound system (FUJIFILM VisualSonics Inc.) 10 days after tumor inoculation and ultrasound was performed 1X per week until mice were euthanized. To evaluate whether targeting MDSCs with gemcitabine (GEM) improves transfer of T cells, C57BL/6 mice received intravesical instillation of MB49-OVA tumor cells and were monitored via ultrasound. Seven-ten days after intravesical instillation of tumor, mice were separated into three treatment groups and an untreated (UNTX) group. The gemcitabine group (GEM) and the combination gemcitabine and OT-I treatment group (GEM+OT-I) received intravesical instillation of 500 ug gemcitabine for 30 minutes. The OT-I treatment group (OT-I) and GEM+OT-I treatment groups received intravesical instillation of 5×10^6 OT-I T-cells for 3 hours at day 4 after instillation of Gem. Tumor growth was measured via ultrasound.

The text below walks through data of US20250302961A1, “TARGETING MYELOID-DERIVED SUPPRESSOR CELLS (MDSCS) IN BLADDER CANCER TO ENHANCE EFFICACY OF ADOPTIVE CELL THERAPY (ACT)” (H. LEE MOFFITT CANCER CENTER AND RESEARCH INSTITUTE, INC., priority 2022, published 2025).

For the compound `Nc1ccn([C@@H]2O[C@H](CO)[C@@H](O)C2(F)F)c(=O)n1` [gemcitabine], the “anti-tumor response (tumor growth via ultrasound)” value runs as follows: (mice bearing large MB49-OVA tumors (>50 mm3)) “improved anti-tumor response”; (mice bearing large MB49-OVA tumors (>50 mm3), listed as Gemcitabine) “improves adoptive cell therapy (ACT)”; (mice bearing smaller MB49-OVA tumors (<50 mm3)) “little added benefit to ACT”.
